# Article PMC7297817, “Pharmacological Characterization of a Betaine/GABA Transporter 1 (BGT1) Inhibitor Displaying an Unusual Biphasic Inhibition Profile and Anti-seizure Effects” (Neurochemical Research, 2020)
# Like-named read-outs stand apart in the source and are kept apart here.
# Columns and labels:
# [1] = molecular target: T1, hGAT3 L314Q (Homo sapiens, UniProt P48066, L314Q); test: [3H]GABA uptake at hGAT3 L314Q mutant transiently expressed in tsA201 cells; type: cell-based; conditions: 30 nM [3H]GABA, 3 min
# T1 construct: expressed in transfected cells; host or cells: tsA201 (transient)
# Procedure: The HEK-293 and Flp-In CHO cell lines stably expressing mouse (m) and human (h) GATs, respectively, have been described previously and were cultured accordingly. The tsA201 cell line was used for transient expression while the MDCK II cell line express BGT1 endogenously. Both cell lines were cultured as described. tsA201 cells were transfected with DNA constructs (8 μg per 10 cm dish if not otherwise mentioned) using 40 μL PolyFect transfection reagent according to the manufacturer’s protocol (Qiagen, Venlo, Netherlands). The DNA constructs encoding hBGT1, hGAT1-3 [36], the mutated constructs hBGT1 Q299 and hGAT3 L314Q described previously, and hBGT Y453A were synthesized and sequence validated by Genscript (NJ, USA).
# The [^3H]GABA competition uptake assay was performed as previously described. A minor change, however, was introduced for uptake in MDCK II cells, in which 100 nM [^3H]GABA was used for a 15 min incubation period at 37 °C instead of 30 nM [^3H]GABA and 3 min incubation. Studies related to the inhibition curves with GABA and BPDBA at hBGT1 were obtained both with and without the presence of 10 μM ATP during the [^3H]GABA uptake assay.
# The [^3H]GABA uptake data was normalized to the percentage of total uptake in the individual experiments in the presence of the lowest compound concentration or no compound present. […]
# [2] = molecular target: T2, DAT (Homo sapiens, UniProt Q01959); test: NIMH PDSP radioligand binding, DAT; conditions: radioligand [3H]WIN35428, n=4
# T2 construct: purchased NIMH Psychoactive Drug Screening Program (PDSP)
# [3] = molecular target: T3, hBGT1 (Homo sapiens, UniProt P48065); test: [3H]GABA uptake at hBGT1 transiently expressed in tsA201 cells; type: cell-based
# T3 construct: expressed in transfected cells; host or cells: tsA201 (transient)
# T3 sequence (P48065 1-614): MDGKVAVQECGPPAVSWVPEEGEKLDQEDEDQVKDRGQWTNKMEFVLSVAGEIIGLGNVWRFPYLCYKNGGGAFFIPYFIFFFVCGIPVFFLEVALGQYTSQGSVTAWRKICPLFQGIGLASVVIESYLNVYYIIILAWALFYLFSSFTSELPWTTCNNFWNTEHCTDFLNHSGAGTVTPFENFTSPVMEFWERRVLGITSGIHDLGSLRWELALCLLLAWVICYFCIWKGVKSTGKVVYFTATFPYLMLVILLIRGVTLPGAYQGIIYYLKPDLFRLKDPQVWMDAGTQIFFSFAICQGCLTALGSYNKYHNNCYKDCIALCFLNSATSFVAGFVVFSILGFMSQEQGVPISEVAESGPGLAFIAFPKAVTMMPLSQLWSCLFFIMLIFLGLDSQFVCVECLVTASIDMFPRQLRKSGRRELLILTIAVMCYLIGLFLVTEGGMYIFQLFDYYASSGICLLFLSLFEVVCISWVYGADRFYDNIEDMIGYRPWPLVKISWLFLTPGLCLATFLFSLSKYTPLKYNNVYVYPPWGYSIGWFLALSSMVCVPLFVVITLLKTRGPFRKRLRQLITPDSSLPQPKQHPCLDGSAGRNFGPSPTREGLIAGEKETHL
# Procedure: The tsA201 cell line was used for transient expression while the MDCK II cell line express BGT1 endogenously. Both cell lines were cultured as described. tsA201 cells were transfected with DNA constructs (8 μg per 10 cm dish if not otherwise mentioned) using 40 μL PolyFect transfection reagent according to the manufacturer’s protocol (Qiagen, Venlo, Netherlands). The DNA constructs encoding hBGT1, hGAT1-3 [36], the mutated constructs hBGT1 Q299 and hGAT3 L314Q described previously, and hBGT Y453A were synthesized and sequence validated by Genscript (NJ, USA).
# The [^3H]GABA competition uptake assay was performed as previously described. […] Studies related to the inhibition curves with GABA and BPDBA at hBGT1 were obtained both with and without the presence of 10 μM ATP during the [^3H]GABA uptake assay.
# All compounds, except BAPTA/AM, were also present at the same concentration during the course of the actual [^3H]GABA uptake assay.
# The [^3H]GABA uptake data was normalized to the percentage of total uptake in the individual experiments in the presence of the lowest compound concentration or no compound present. Data presented is the pooled data of at least three independent experiments with three technical replicates. Concentration–response curves (CRCs) were fitted with GraphPad Prism (version 8.2.1, Yosemite, GraphPad Software, San Diego, CA, USA) by non-linear regression to the sigmoidal concentration response model: Y=Bottom+(Top-Bottom)/1+10^LogIC50-X∗nH where Top is the Top plateau, Bottom is the Bottom plateau, X is the logarithm of the concentration of the compound, LogIC50 is the concentration giving a response halfway between Top and Bottom,and nH is the Hill slope.
# The best fit for CRCs obtained with the [^3H]GABA uptake assay was identified by the extra-sum-of-squares F test (for convenience referred to as F test).
# [4] = molecular target: Sigma1 (Cavia porcellus, UniProt Q60492); test: NIMH PDSP radioligand binding, Sigma1; conditions: radioligand [3H]pentazocine(+), n=4
# Procedure: IC50 values in μM (Ki μM)^a. The targets in bold were inhibited by >35% at 10 μM.
# [5] = molecular target: T4, M1 (Homo sapiens, UniProt P11229); test: NIMH PDSP radioligand binding, M1
# T4 construct: purchased NIMH Psychoactive Drug Screening Program (PDSP)
# [6] = molecular target: T5, 5-HT1D (Homo sapiens, UniProt P28221); test: NIMH PDSP radioligand binding, 5-HT1D; conditions: radioligand [3H]GR125743, n=4
# T5 construct: purchased NIMH Psychoactive Drug Screening Program (PDSP)
# [7] = molecular target: T6, Alpha2B (Homo sapiens, UniProt P18089); test: NIMH PDSP radioligand binding, Alpha2B; conditions: radioligand [3H]rauwolscine, n=4
# T6 construct: purchased NIMH Psychoactive Drug Screening Program (PDSP)
# [8] = molecular target: T7, H1 (Homo sapiens, UniProt P35367); test: NIMH PDSP radioligand binding, H1; conditions: radioligand [3H]pyrilamine, n=4
# T7 construct: purchased NIMH Psychoactive Drug Screening Program (PDSP)
# [9] = molecular target: T8, D4 (Homo sapiens, UniProt P21917); test: NIMH PDSP radioligand binding, D4; conditions: radioligand [3H]N-methylspiperone, n=4
# T8 construct: purchased NIMH Psychoactive Drug Screening Program (PDSP)
# [10] = 30 min pre-incubation with 25 μM BAPTA/AM
# [11] = control: 30 min pre-incubation in assay buffer
# T2 sequence (Q01959 whole entry): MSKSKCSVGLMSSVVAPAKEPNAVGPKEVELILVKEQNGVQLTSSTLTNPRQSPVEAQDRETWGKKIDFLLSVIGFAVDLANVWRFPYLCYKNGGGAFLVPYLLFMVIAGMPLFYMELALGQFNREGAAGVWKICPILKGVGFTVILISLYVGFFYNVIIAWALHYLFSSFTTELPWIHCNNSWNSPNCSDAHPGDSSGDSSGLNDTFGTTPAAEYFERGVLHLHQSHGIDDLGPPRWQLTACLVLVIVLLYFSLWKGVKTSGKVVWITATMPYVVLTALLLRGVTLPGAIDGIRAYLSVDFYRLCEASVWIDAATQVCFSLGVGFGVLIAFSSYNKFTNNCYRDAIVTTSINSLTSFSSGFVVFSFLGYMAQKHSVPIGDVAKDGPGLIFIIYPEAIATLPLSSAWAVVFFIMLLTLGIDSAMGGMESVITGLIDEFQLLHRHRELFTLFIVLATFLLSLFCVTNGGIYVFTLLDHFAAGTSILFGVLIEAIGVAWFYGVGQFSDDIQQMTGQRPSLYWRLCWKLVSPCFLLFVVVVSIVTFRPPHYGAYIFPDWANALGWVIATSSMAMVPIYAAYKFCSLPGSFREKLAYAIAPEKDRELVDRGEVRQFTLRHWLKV
# T5 sequence (P28221 whole entry): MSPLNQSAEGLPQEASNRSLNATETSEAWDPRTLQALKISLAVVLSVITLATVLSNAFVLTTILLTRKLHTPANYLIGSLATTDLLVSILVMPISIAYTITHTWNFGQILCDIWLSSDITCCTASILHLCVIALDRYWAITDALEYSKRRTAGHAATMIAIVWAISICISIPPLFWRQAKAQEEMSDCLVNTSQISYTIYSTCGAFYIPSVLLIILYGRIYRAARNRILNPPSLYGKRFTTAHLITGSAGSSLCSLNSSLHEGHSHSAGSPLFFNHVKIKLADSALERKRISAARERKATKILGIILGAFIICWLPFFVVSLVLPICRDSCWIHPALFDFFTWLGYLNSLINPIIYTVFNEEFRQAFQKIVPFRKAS
# T4 sequence (P11229 whole entry): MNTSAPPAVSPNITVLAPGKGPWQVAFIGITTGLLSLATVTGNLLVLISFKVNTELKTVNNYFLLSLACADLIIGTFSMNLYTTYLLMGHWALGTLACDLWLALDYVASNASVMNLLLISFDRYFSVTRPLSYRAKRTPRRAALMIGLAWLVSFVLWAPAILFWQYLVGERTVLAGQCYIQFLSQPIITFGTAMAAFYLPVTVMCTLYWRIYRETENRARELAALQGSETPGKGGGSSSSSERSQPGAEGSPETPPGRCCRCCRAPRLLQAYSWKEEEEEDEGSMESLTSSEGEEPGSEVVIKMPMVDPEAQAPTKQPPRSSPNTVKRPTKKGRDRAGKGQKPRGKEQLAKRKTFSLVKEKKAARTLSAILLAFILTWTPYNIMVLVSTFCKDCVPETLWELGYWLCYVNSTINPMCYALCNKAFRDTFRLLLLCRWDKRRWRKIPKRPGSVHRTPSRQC
# Sequence of Sigma1 (Q60492 whole entry): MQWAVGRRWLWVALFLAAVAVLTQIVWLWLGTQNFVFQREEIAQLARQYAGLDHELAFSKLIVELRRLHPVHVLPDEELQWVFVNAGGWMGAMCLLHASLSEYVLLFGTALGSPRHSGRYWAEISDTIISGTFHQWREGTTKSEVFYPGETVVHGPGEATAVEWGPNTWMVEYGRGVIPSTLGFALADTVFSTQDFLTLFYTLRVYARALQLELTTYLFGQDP
# T7 sequence (P35367 whole entry): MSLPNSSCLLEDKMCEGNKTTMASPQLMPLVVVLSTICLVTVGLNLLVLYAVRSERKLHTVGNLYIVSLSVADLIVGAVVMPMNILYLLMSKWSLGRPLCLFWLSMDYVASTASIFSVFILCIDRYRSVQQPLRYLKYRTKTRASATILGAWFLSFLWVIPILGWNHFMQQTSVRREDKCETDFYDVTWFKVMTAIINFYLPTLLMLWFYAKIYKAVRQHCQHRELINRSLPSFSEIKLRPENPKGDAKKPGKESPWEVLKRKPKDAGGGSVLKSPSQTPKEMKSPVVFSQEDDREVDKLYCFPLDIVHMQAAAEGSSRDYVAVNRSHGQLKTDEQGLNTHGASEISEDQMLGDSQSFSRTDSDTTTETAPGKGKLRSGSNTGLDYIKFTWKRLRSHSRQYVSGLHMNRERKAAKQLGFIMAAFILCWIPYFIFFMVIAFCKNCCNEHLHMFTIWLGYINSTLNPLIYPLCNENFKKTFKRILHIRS
# T1 sequence (P48066 whole entry L314Q): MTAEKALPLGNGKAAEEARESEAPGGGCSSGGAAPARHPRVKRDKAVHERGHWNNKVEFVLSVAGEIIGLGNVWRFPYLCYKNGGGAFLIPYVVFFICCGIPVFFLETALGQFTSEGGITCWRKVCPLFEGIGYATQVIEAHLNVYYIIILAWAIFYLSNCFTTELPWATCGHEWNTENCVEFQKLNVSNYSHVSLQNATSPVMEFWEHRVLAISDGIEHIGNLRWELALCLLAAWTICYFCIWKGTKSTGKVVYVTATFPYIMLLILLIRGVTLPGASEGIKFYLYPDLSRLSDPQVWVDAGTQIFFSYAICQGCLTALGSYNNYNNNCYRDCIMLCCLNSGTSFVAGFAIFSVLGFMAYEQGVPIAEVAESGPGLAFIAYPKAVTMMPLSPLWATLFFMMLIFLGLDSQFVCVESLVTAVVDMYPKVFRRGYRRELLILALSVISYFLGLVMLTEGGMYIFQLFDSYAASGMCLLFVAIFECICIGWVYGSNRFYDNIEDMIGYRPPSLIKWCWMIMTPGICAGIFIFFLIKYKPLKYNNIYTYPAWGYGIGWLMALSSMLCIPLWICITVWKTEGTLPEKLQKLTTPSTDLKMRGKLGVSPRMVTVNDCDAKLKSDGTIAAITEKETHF
# T6 sequence (P18089 whole entry): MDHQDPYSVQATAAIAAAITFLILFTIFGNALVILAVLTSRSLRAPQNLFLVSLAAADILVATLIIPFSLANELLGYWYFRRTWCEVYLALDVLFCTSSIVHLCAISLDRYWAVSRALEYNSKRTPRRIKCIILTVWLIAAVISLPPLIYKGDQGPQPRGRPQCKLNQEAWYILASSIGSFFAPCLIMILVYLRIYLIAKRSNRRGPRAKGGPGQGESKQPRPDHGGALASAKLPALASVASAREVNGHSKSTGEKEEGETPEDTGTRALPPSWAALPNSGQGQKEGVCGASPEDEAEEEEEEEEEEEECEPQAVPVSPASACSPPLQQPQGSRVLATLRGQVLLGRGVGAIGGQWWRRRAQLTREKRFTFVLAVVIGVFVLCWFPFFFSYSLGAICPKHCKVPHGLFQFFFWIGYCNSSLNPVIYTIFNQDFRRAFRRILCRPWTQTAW
# T8 sequence (P21917 whole entry): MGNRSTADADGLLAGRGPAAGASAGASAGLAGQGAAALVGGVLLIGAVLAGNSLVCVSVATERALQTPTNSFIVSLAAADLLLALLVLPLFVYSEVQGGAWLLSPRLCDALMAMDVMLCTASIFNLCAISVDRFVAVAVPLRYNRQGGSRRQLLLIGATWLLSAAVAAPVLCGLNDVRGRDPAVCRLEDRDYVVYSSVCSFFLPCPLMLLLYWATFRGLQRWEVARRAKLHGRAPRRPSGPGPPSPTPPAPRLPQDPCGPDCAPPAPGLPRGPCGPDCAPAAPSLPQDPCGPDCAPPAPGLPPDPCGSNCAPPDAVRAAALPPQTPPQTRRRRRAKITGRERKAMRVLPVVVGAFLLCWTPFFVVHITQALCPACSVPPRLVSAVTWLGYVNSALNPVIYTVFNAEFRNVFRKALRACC
compound,measurement,setting,value
"Cc1ccsc1C(=CCCN(C)[C@H]1CCCC[C@H]1C(=O)O)c1sccc1C [SBV2-114, (1R,2S)-2-((4,4-bis(3-methylthiophen-2-yl)but-3-en-yl)(methyl)amino)cyclohexanecarboxylic acid]",inhibition profile and activity at hGAT3 L314Q,[1],activity in hGAT3 L314Q similar to hBGT1
same,inhibition at 10 µM,[2],36.9%
same,inhibition profile (mono-/biphasic),"[3]; 30 nM [3H]GABA, 3 min, F test",biphasic
same,Frac,[3]; 2 μg cDNA (n=2),0.44
same,nH1,[3]; 2 μg cDNA (n=2),-0.86
same,nH2,[3]; 2 μg cDNA (n=2),-1.75
same,Frac,[3]; 4 μg cDNA (n=2),0.32
same,nH1,[3]; 4 μg cDNA (n=2),-1.31
same,nH2,[3]; 4 μg cDNA (n=2),1.62
same,Frac,[3]; [10],0.15
same,nH1,[3]; [10],-2.02
same,preferred curve fitting,[3]; 30 min pre-incubation with and presence of 1 μM A 804598,biphasic fit
same,preferred curve fitting,[3]; 30 min pre-incubation with and presence of 5 μM U-73122,biphasic fit
same,IC50,"[3]; IC50, high affinity component (low IC50), biphasic fit, 30 nM [3H]GABA, 3 min, tsA201, 8 μg cDNA",4.7 µM
same,IC50,"[3]; IC50, high affinity component, 30 min pre-incubation with 25 μM BAPTA/AM",5.2 µM
same,IC50,"[3]; IC50, high affinity component, control: 30 min pre-incubation at 37 °C in assay buffer",6.1 µM
same,% inhibition (Frac value) at the low IC50,[3]; biphasic fit,42%
same,Frac,[3]; cells pre-incubated for 10 min with SBV2-114 prior to uptake,0.34
same,Frac,[3]; [11],0.21
same,nH1,[3]; [11],-0.76
same,nH2,[3]; [11],-2.05
same,IC50,"[3]; pIC50 ± S.E.M., high affinity component, 2 μg cDNA (n=2), biphasic fit",3.39 µM
same,IC50,"[3]; pIC50 ± S.E.M., high affinity component, 4 μg cDNA (n=2), biphasic fit",2.19 µM
same,IC50,"[3]; pIC50 ± S.E.M., high affinity component, biphasic fit, 30 nM [3H]GABA, 3 min, tsA201, 8 μg cDNA",5.25 µM
same,Frac,"[3]; proportion of maximal response due to the more potent phase, 8 μg cDNA",0.42
same,IC50,"[3]; read-out: IC50, low affinity component (high IC50), biphasic fit, 30 nM [3H]GABA, 3 min, tsA201, 8 μg cDNA",556 µM
same,IC50,"[3]; read-out: IC50, low affinity component, 2 μg cDNA (n=2), biphasic fit",518 µM
same,IC50,"[3]; read-out: IC50, low affinity component, 4 μg cDNA (n=2), biphasic fit",514 µM
same,IC50,"[3]; read-out: IC50, low affinity component, 30 min pre-incubation with 25 μM BAPTA/AM",513 µM
same,IC50,"[3]; read-out: IC50, low affinity component, control: 30 min pre-incubation at 37 °C in assay buffer",507 µM
same,inhibition at 10 µM,[4],55.6%
same,inhibition at 10 µM,[5],18.3%
same,inhibition at 10 µM,[6],19.6%
same,inhibition at 10 µM,[7],24.9%
same,inhibition at 10 µM,[8],51.2%
same,inhibition at 10 µM,[9],-5.1%
